A short description of data set [1]: Water solubility of alkylene glycol dilevulinates. The class given is physicochemical. The text has this:
Ethylene glycol dilevulinate (EGDL) is 100% water soluble while 1,2-propylene glycol dilevulinate (1,2-PGDL) is 10% soluble by weight in water, and 1,3-propylene glycol dilevulinate (1,3-PGDL) is 25% soluble. All three compounds also dissolve aromatic hydrocarbon compounds such as toluene and xylene, while having limited solubility for simple aliphatic hydrocarbons such as hexane and cyclohexane. Thus, C2-C3 alkylene glycol dilevulinates appear to provide the greatest benefits when used as coupling agents in water-based cleaning formulations.

The nature of data set [2]: Coupling effectiveness / phase stability with d-limonene (Sets I & II). More on the design: key to appearance of sample formulation (coupling of d-limonene): clear: Clear indicates successful coupling of the d-limonene; cloudy indicates poor or no coupling. As to conditions: for effectiveness at coupling d-limonene: absence of surfactant (0% SLS); for d-limonene level successfully coupled: 1% SLS, solvent at a 20% level, highest d-limonene level tested; for appearance of sample formulation (coupling of d-limonene): 20% coupling agent, Column 6. The data set is classed as physicochemical. How it is done: Two sets of experiments (I & II) were performed to determine the relative coupling effectiveness of fragrance (d-limonene)-containing aqueous formulations having various traditional coupling agents (glycol ethers) and those having various alkylene glycol dilevulinates as the coupling agents, at various temperatures (5° C., room temperature (25° C.) and 40° C.). The details are provided below and the results are shown in diagrams provided in FIGS. 1-16 and explained hereinbelow.
Stock solutions were prepared that contained the main components which didn't change throughout these experiments. Each formulation contained the following standard ingredients: […]
With reference now to the figures, FIGS. 1-8 relate to the Set of Comparative Examples. Each circle represents one sample formulation. More particularly, each of FIGS. 1 & 5 provide a schematic grid diagram of the general layout of sample formulations having various types of glycol ethers as coupling agents and various amounts of d-limonene fragrance, in the presence of 1% SLS surfactant and absence (0% SLS) of surfactant.
FIGS. 2-4 & 6-8 show the results (clear/white or cloudy/black) for the sample formulations identified in the grids of FIGS. 1 and 5 at 5° C., room temperature (25° C.), and 40° C., respectively. Clear indicates successful coupling of the d-limonene and cloudy indicates poor or no coupling.
FIGS. 9-16 relate to the Set II of Working Examples. As with FIGS. 1-8, each circle represents one sample formulation. More particularly, FIG. 9 provides a schematic grid diagram of the general layout of sample formulations having various types of alkylene glycol dilevulinates as coupling agents and various amounts of d-limonene fragrance. For instance, rows A & B of the grid in FIG. 9 were formulations that each had 0.25% by weight d-limonene. Thus, rows A & B of each of FIGS. 10-12 & 14-16 depict formulations that had 0.25% by weight d-limonene.
FIGS. 10-12 & 14-16 show the results (clear/white or cloudy/black) for the sample formulations identified in the grids of FIGS. 9 & 13 at 5° C., room temperature (25° C.), and 40° C., respectively. Clear indicates successful coupling of the d-limonene and cloudy indicates poor or no coupling.

Take `CC(=O)CCC(=O)OCC(C)OC(=O)CCC(C)=O` (centres unmarked) [1,2-PGDL, 1,2-propylene glycol dilevulinate]: in data set [1], the “water soluble / soluble by weight in water” value (“water soluble / soluble” below) turned out to be 10%.

`CC(=O)CCC(=O)OCCCOC(=O)CCC(C)=O` [1,3-PGDL, 1,3-propylene glycol dilevulinate]: the “water soluble / soluble” value in data set [1] came to 25%.

For `CC(=O)CCC(=O)OCCCOC(=O)CCC(C)=O` [1,3-propylene glycol dilevulinate], the “effectiveness at coupling d-limonene” value in data set [2] is recorded as “better than 1,2-propylene glycol dilevulinate”.

On to `COC(C)COC(C)CO` (centres unmarked) [DOWANOL DPM, dipropylene glycol methyl ether], for which the “d-limonene level successfully coupled” value in data set [2] is on record as 3%. In data set [2] (absence of added SLS surfactant), the “d-limonene level coupled into an aqueous mixture” value is listed as “more than 0.25%”.

As to `CC(=O)CCC(=O)OCCOC(=O)CCC(C)=O` [EGDL, ethylene glycol dilevulinate], the “water soluble / soluble” value in data set [1] is 100%. Also, the “appearance of sample formulation (coupling of d-limonene)” value is given as “clear” in data set [2] (5° C. (FIG. 2), 1.5% d-limonene, Row F); “cloudy” in data set [2] (40° C., 1.5% d-limonene, Row F); “clear” in data set [2] (room temperature (FIG. 3), 1.5% d-limonene, Row F). Besides, the “effectiveness at coupling d-limonene” value in data set [2] is given as “better than 1,2-propylene glycol dilevulinate”.

In the case of `CCCCCCOCCOCCO` [HxCb, diethylene glycol n-hexyl ether], in data set [2], the “d-limonene level successfully coupled” value was found to be 3%. Also, the “appearance of sample formulation (coupling of d-limonene)” value in data set [2] (5° C. (FIG. 2), 0.75% d-limonene, Row D) was “cloudy”; in data set [2] (40° C., 0.75% d-limonene, Row D), “cloudy”; in data set [2] (room temperature (FIG. 3), 0.75% d-limonene, Row D), “clear”.

Values taken from US8586522B2, “Glycol dilevulinates as coupling agents in cleaning formulations” (Dow Global Technologies LLC, priority 2011, dated 2013).
